Active and inactive are the calls of the source. Some results are limits rather than exact numbers.

Common to all, as to type: functional
The target in experiment [1] is Protein kinase C theta type (Homo sapiens, UniProt Q04759). The experiment in a line: Navigating the Kinome. Panel member name: PRKCQ.
The target of experiment [2] is 5'-AMP-activated protein kinase catalytic subunit alpha-1 (Homo sapiens, UniProt Q13131).
The target of experiment [3] is T1, Tyrosine-protein kinase receptor TYRO3 (Homo sapiens, UniProt Q06418).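 Also: TYRO3 value obtained as one member of a kinome-wide profiling panel.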
T1 sequence (Q06418 whole entry): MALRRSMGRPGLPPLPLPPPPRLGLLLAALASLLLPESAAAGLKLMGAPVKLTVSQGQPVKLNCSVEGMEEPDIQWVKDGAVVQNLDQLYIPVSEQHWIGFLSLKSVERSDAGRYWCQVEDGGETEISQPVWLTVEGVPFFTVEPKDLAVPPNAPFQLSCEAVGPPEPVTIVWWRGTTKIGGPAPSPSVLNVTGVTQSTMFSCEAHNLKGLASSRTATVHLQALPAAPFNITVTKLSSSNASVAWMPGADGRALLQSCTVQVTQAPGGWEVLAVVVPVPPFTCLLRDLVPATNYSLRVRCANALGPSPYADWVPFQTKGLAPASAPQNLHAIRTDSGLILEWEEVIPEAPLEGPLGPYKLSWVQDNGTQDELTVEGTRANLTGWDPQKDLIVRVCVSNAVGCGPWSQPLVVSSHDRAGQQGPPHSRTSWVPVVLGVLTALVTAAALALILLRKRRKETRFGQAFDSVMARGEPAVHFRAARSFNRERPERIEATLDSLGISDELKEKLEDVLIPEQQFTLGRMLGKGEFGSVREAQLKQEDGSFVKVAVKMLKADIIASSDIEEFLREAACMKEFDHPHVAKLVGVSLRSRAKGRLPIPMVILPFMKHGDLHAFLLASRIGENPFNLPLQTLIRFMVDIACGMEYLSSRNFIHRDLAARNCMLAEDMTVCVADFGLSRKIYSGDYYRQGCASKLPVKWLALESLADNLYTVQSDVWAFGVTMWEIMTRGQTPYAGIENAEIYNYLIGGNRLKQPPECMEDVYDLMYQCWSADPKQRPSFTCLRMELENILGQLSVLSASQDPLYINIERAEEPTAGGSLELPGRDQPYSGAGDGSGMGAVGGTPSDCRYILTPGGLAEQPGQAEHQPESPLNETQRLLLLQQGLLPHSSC

In experiment [4] the target is Casein kinase I isoform alpha (Homo sapiens, UniProt P48729).
Casein kinase I isoform alpha, sequence (P48729 whole entry, canonical isoform): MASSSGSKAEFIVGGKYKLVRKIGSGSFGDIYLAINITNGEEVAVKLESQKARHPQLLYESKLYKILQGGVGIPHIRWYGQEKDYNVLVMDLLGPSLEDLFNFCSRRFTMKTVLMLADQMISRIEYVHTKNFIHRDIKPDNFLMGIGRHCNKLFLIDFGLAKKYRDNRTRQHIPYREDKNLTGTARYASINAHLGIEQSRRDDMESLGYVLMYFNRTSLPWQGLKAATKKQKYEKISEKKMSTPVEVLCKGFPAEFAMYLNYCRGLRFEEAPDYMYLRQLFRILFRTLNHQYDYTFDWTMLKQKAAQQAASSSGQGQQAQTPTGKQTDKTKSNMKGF
Experiment [5] deals with Dual specificity tyrosine-phosphorylation-regulated kinase 1B (Homo sapiens, UniProt Q9Y463). Briefly: Navigating the Kinome. Panel member name: DYRK1B.
Dual specificity tyrosine-phosphorylation-regulated kinase 1B, sequence (Q9Y463 whole entry): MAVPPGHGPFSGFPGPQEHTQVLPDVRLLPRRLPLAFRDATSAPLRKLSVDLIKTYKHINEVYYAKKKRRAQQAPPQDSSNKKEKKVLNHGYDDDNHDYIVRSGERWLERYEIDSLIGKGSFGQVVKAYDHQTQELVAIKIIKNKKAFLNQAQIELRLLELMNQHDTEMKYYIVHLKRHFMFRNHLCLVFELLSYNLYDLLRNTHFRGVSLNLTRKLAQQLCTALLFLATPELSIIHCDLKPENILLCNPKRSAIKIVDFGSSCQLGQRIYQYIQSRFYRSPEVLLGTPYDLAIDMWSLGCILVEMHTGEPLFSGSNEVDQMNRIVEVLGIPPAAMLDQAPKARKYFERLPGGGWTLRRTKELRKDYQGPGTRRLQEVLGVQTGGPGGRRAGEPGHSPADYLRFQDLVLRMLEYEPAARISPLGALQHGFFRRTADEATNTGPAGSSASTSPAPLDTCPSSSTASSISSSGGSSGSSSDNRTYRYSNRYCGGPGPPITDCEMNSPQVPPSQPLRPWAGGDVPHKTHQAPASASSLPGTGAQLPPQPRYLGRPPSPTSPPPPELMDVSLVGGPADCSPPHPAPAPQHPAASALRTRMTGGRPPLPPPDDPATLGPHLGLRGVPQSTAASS
The target in experiment [6] is Cyclin-dependent kinase 8 (Homo sapiens, UniProt P49336). Briefly: Navigating the Kinome. Panel member name: CDK8.
The target in experiment [7] is Vascular endothelial growth factor receptor 1 (Homo sapiens, UniProt P17948).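 Also: measured within a kinome-wide profiling panel, FLT1 as the panel member.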
Experiment [8] addresses Cyclin-dependent kinase 9 (Homo sapiens, UniProt P50750).
Experiment [9] concerns the target Mitogen-activated protein kinase kinase kinase kinase 4 (Homo sapiens, UniProt O95819).
The target of experiment [10] is Dual specificity tyrosine-phosphorylation-regulated kinase 1A (Homo sapiens, UniProt Q13627).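 Also: measured against DYRK1A as one member of a broad kinome profiling panel.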
For experiment [11], the target named is T2, Inhibitor of nuclear factor kappa-B kinase subunit epsilon (Homo sapiens, UniProt Q14164).
T2 sequence (Q14164 whole entry): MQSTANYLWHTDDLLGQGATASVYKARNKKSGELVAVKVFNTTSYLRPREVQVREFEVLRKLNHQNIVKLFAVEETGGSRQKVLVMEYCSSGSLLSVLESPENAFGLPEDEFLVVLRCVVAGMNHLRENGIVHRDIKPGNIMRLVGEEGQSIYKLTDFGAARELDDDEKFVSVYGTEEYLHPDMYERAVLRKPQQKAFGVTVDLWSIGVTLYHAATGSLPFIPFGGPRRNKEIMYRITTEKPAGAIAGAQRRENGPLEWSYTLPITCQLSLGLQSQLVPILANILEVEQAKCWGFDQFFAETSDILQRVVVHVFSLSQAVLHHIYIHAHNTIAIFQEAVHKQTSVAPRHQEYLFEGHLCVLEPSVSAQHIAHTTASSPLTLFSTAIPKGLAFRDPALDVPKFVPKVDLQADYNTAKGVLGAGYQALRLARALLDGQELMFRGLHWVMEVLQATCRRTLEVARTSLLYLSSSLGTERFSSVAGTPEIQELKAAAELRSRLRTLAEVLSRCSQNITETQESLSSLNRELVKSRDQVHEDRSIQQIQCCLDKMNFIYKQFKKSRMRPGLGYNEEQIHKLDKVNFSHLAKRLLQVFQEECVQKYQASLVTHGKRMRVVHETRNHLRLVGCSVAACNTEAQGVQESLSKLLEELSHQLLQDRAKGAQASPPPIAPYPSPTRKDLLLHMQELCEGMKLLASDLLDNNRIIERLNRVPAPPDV
Briefly: Navigating the Kinome. Panel member name: IKBKE.

Experiment [12] has as its target High affinity nerve growth factor receptor (Homo sapiens, UniProt P04629).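 Also: NTRK1 tested as one member of a kinome-wide profiling panel.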
For experiment [13], the target named is Insulin-like growth factor 1 receptor (Homo sapiens, UniProt P08069). Briefly: Navigating the Kinome. Panel member name: IGF1R.
Insulin-like growth factor 1 receptor, sequence (P08069 31-736 limits assumed): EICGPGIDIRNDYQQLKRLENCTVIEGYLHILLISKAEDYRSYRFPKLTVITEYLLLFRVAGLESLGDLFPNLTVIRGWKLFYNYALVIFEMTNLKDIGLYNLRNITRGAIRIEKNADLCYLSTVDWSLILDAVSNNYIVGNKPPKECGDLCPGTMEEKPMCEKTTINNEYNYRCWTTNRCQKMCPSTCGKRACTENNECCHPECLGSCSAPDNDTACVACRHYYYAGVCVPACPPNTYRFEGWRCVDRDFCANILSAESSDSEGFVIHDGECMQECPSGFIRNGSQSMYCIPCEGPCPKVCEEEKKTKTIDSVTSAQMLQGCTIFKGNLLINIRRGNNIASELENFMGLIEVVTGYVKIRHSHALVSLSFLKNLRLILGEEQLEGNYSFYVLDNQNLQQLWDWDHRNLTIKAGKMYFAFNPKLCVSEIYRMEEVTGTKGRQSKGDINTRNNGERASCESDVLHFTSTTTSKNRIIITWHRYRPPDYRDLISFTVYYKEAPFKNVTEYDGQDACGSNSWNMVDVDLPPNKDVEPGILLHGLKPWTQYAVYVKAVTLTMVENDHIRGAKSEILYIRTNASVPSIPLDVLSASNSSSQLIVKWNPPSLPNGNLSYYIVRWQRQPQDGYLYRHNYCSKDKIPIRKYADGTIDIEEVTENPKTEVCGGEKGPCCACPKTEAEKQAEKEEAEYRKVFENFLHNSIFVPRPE
Insulin-like growth factor 1 receptor, sequence (P08069 741-1367 limits assumed): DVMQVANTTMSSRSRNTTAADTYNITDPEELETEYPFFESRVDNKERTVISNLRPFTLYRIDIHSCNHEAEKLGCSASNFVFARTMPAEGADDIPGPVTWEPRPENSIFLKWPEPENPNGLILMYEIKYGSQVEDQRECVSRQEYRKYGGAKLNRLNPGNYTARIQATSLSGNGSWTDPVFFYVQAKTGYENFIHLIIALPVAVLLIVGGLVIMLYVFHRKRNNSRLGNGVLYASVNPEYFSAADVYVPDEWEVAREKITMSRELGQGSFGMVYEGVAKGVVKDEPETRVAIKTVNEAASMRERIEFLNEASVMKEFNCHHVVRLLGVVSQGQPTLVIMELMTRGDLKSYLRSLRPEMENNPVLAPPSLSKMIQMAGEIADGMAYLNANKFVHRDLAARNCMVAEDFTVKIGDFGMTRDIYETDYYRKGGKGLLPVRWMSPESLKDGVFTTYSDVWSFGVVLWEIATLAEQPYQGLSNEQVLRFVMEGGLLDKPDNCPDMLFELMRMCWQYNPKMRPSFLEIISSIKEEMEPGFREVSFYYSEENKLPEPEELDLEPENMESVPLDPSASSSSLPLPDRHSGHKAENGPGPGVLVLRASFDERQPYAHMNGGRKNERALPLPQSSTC
The target in experiment [14] is Calcium/calmodulin-dependent protein kinase type II subunit alpha (Homo sapiens, UniProt Q9UQM7). Briefly: Navigating the Kinome. Panel member name: CAMK2A.
Calcium/calmodulin-dependent protein kinase type II subunit alpha, sequence (Q9UQM7 whole entry): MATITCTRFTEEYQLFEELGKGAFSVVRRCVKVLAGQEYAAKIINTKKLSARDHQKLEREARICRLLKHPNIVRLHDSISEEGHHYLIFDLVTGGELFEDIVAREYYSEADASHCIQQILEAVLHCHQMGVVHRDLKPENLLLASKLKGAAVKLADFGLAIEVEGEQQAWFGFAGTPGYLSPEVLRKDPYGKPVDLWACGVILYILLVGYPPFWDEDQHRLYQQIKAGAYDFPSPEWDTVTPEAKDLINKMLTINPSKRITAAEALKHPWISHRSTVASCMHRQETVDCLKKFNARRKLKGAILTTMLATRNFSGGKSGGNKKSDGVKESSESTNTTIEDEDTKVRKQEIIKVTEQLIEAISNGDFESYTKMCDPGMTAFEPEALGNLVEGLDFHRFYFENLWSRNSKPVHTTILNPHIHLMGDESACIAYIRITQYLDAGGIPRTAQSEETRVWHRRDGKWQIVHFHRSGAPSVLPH
Experiment [15] addresses Mitogen-activated protein kinase 14 (Homo sapiens, UniProt Q16539).

Mitogen-activated protein kinase kinase kinase kinase 4, sequence (O95819 whole entry): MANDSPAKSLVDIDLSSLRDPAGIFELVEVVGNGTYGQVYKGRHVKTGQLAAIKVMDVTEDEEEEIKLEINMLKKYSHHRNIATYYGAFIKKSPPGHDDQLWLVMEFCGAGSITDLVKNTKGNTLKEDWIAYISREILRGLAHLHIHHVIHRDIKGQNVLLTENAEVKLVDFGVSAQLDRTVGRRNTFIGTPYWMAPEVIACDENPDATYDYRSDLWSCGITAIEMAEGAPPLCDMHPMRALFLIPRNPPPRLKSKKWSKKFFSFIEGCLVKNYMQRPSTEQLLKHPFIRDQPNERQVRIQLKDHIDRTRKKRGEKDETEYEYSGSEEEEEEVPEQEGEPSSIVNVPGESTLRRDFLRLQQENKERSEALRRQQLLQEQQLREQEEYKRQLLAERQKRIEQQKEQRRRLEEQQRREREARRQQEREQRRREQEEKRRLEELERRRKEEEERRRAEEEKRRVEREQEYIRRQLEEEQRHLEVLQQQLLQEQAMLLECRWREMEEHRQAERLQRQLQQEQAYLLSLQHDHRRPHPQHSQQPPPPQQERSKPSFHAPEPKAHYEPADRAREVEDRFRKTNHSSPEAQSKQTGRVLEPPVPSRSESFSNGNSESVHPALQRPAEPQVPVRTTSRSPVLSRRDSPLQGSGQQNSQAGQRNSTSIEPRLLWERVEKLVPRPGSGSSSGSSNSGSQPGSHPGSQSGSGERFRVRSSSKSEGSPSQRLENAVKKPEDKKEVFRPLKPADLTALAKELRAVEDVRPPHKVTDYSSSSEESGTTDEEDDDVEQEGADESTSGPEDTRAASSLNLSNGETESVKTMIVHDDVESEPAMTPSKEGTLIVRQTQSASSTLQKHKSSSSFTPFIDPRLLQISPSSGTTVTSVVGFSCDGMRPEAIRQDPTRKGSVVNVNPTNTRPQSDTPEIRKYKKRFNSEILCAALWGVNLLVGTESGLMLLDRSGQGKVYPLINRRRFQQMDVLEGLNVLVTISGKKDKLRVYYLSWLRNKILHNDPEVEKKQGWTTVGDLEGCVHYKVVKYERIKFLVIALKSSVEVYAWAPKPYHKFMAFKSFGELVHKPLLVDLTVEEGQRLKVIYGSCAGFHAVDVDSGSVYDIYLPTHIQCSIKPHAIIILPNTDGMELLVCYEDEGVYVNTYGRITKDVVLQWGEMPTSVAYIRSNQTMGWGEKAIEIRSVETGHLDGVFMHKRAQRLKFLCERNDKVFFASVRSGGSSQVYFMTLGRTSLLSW
High affinity nerve growth factor receptor, sequence (P04629 whole entry): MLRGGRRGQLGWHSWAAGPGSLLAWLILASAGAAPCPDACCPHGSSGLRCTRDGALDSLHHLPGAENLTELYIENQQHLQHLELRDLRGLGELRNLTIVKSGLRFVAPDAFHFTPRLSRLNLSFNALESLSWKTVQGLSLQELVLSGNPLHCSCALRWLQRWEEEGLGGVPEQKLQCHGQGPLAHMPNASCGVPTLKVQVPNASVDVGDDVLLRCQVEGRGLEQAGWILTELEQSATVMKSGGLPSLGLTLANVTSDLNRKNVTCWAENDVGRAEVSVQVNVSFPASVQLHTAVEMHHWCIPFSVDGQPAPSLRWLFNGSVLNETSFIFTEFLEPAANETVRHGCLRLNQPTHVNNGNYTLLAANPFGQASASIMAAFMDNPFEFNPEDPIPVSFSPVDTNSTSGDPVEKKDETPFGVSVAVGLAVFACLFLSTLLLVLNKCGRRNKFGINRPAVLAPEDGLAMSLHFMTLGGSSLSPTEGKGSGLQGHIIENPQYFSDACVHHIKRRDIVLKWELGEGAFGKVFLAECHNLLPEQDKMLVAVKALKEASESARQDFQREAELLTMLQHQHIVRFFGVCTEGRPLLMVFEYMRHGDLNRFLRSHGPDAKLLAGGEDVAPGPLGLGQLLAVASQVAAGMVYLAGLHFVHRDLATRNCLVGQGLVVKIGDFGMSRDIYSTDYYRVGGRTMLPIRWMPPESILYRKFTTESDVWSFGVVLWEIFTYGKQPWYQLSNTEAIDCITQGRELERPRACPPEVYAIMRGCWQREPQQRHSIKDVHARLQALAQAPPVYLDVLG

What is called Ki is the equilibrium dissociation constant of an inhibitor or competing ligand from its target. `O=c1[nH]c2cc(Br)cnc2[nH]1`: the Ki in experiment [1] is 31.6 µM (active); in [2], 25.1 µM (active); in [3], 31.6 µM (active); in experiment [4], 6.31 µM (active); in [5], 10 µM (active); in experiment [6], 7.94 µM (active). In addition, the Ki is 10 µM (active) in experiment [7]; 12.6 µM (active) in experiment [8]; 50.1 µM (active) in [9]; 3.98 µM (active) in experiment [10]; 39.8 µM (active) in [11].
On to `O=C(Nc1cccc(C(F)(F)F)n1)Nc1ccnc2cc(OC(F)F)ccc12`, for which the Ki in [1] is > 2.51 µM (inactive); in [2], > 3.16 µM (inactive); in experiment [3], > 3.16 µM (inactive); in experiment [4], > 3.98 µM (inactive); in [12], > 3.16 µM (inactive); in [13], > 2.51 µM (inactive). The Ki in [5] was > 2.51 µM (inactive); in experiment [6] it was > 3.98 µM (inactive); in experiment [7], > 3.98 µM (inactive); in experiment [8] it was > 1.58 µM (inactive); in experiment [9], > 5.01 µM (inactive); in experiment [10], > 2 µM (inactive). The results for the Ki in experiment [11], in experiment [14] and in [15] were > 3.16 µM (inactive), > 6.31 µM (inactive) and > 3.98 µM (inactive), respectively.
Turning to `O=C(Nc1cccc(C(F)(F)F)n1)Nc1ccnc2cc(Cl)ccc12`, the Ki was > 2.51 µM (inactive) in [1]; > 3.16 µM (inactive) in experiment [2]; > 3.16 µM (inactive) in experiment [3]; > 3.98 µM (inactive) in experiment [4]; 2.51 µM (active) in experiment [12]; > 2.51 µM (inactive) in experiment [13]. Further, the Ki in experiment [5] was > 2.51 µM (inactive); in experiment [6], > 3.98 µM (inactive); in experiment [7] it was > 3.98 µM (inactive); in experiment [8] it was > 1.58 µM (inactive); in [10], > 2 µM (inactive); in experiment [11], > 3.16 µM (inactive). The Ki in experiment [14] is > 7.94 µM (inactive); in experiment [15], > 3.98 µM (inactive).
With `CCC1CC(NS(=O)(=O)C2CC2)CC1c1ncc2cnc3[nH]ccc3n12` (stereo not given), the Ki in experiment [1] was 0.2 µM (active); in [2], 2 µM (active); in experiment [3], > 2 µM (inactive); in experiment [4], > 3.98 µM (inactive); in experiment [12] it was > 3.16 µM (inactive); in experiment [13], > 2.51 µM (inactive). The Ki in [5] was > 2.51 µM (inactive); in experiment [6], > 3.16 µM (inactive); in [7] it was > 3.98 µM (inactive); in experiment [8] it was > 1.58 µM (inactive); in experiment [9] it was > 5.01 µM (inactive); in experiment [10], > 2 µM (inactive). The Ki was > 3.16 µM (inactive) in [11], 2.51 µM (active) in experiment [14] and > 3.98 µM (inactive) in experiment [15].

For the origin of these results see ChEMBL document CHEMBL1201862, “PubChem BioAssay data set” (2004).
